Measurements published in ChEMBL document CHEMBL6083277, “Discovery of SZJK-0421: A Novel Potent, Low Toxicity, Selective Second Generation of CRM1 Inhibitor for the Treatment of Both Hematological and Solid Tumors” (J Med Chem, 2024).
Activity calls are given as the source filed them. No cut-off for these calls is given here.

Legend:
[1] = target: Voltage-gated inwardly rectifying potassium channel KCNH2 (Homo sapiens, UniProt Q12809); assay: Inhibition of hERG in HEK293 cells; type: toxicity, cell-based
MM1.S [2] = assay: Induction of apoptosis in human MM1.S cells assessed as increase in p53 level at 0.5 to 1 uM incubated for 48 hrs by Western blot analysis; type: functional, cell-based; conditions: dose 0.5-1 µM
MM1.S [3] = assay: Antiproliferative activity against human MM1.S cells assessed as inhibition of cell growth incubated for 72 hrs by celltiter-glo assay; type: functional, cell-based
[4] = AUC (0 to t) in male Sprague-Dawley rat at 10 mg/kg, po measured upto 30 hrs by LC-MS/MS analysis; type: ADME, organism-based; conditions: in vivo
[5] = Toxicity in BALB/c mouse assessed as weight loss at 60 mg/kg, po administered once daily for 21 days; type: organism-based; conditions: in vivo, 504 h, time 21 day
[6] = Toxicity in NOD-SCID mouse assessed as decrease in villus height to crypt depth ratio at 15 to 60 mg/kg, po measured every 2 days for 21 days by H and E staining based analysis; type: organism-based; conditions: in vivo, 504 h, dose 15-60 mg/kg, time 21 day
MM1.S [7] = assay: Antitumor activity against human MM1.S cells xenografted in NOD-SCID mouse assessed as tumor growth inhibition at 30 mg/kg, po qd measured upto 21 days; type: functional; conditions: 504 h, time <= 21 day, read-out: TGI
[8] = Toxicity in NOD-SCID mouse assessed as shortening of villi in intestine at 15 to 60 mg/kg, po measured every 2 days for 21 days by H and E staining based analysis; type: organism-based; conditions: in vivo, 504 h, dose 15-60 mg/kg, time 21 day
[9] = Toxicity in NOD-SCID mouse assessed as reduction in intact nuclei in tumor at 60 mg/kg, po measured every 2 days for 21 days by H and E staining based analysis; type: organism-based; conditions: in vivo, 504 h, time 21 day
[10] = Toxicity in NOD-SCID mouse assessed as appearance of large nucleus in tumor at 60 mg/kg, po measured every 2 days for 21 days by H and E staining based analysis; type: organism-based; conditions: in vivo, 504 h, time 21 day
[11] = target: Ran-specific GTPase-activating protein (Homo sapiens, UniProt P43487); assay: Inhibition of RANBP1 nuclear export in human U2OS cells assessed as increase in fluorescence intensity measured for 15 mins by DAPI staining based fluorescence microscopic analysis; type: cell-based
AN3-CA = assay: Antiproliferative activity against human AN3-CA cells assessed as inhibition of cell growth incubated for 72 hrs by celltiter-glo assay; type: functional, cell-based
[12] = Oral bioavailability in male Sprague-Dawley rat at 30 mg/kg measured upto 30 hrs by LC-MS/MS analysis; type: ADME, organism-based; conditions: in vivo
[13] = Cmax in male Sprague-Dawley rat at 15 mg/kg, po measured upto 30 hrs by LC-MS/MS analysis; type: ADME, organism-based; conditions: in vivo
[14] = Toxicity in NOD-SCID mouse implanted with human HCT-116 cells assessed as body weight loss at 60 mg/kg, po measured every 2 days for 21 days; type: organism-based; conditions: in vivo, 504 h, time 21 day
[15] = AUC (0 to t) in male Sprague-Dawley rat at 2 mg/kg, iv measured upto 30 hrs by LC-MS/MS analysis; type: ADME, organism-based; conditions: in vivo
LoVo = assay: Antiproliferative activity against human LoVo cells assessed as inhibition of cell growth incubated for 72 hrs by celltiter-glo assay; type: functional, cell-based
[16] = Metabolic stability in human liver microsomes assessed as intrinsic clearance measured upto 60 mins in presence of NADPH by LC/MS-MS analysis; type: ADME, Microsome; conditions: read-out: CLH
[17] = Metabolic stability in rat liver microsomes assessed as half life measured upto 60 mins in presence of NADPH by LC/MS-MS analysis; type: ADME, Microsome
[18] = Toxicity in BALB/c mouse assessed as side effect at 60 mg/kg, po administered once daily for 21 days; type: organism-based; conditions: in vivo, 504 h, time 21 day
MV4-11 = assay: Antiproliferative activity against human MV4-11 cells assessed as inhibition of cell growth incubated for 72 hrs by celltiter-glo assay; type: functional, cell-based; conditions: MV4-11, 72 h
[19] = Toxicity in BALB/c mouse assessed as organ abnormalities at 30 to 60 mg/kg, po administered once daily for 21 days; type: organism-based; conditions: in vivo, 504 h, dose 30-60 mg/kg, time 21 day
[20] = Metabolic stability in dog liver microsomes assessed as half life measured upto 60 mins in presence of NADPH by LC/MS-MS analysis; type: ADME, Canis lupus familiaris, Microsome
[21] = Metabolic stability in rat liver microsomes assessed as intrinsic clearance measured upto 60 mins in presence of NADPH by LC/MS-MS analysis; type: ADME, Microsome; conditions: read-out: CLH
ARH-77 = assay: Antitumor activity against human ARH-77 cells xenografted in NOD-SCID mouse at 15 to 60 mg/kg, po measured every 2 days for 21 days; type: functional, organism-based; conditions: dose 15-60 mg/kg, time 21.0 day
LAMA-84 = assay: Antiproliferative activity against human LAMA-84 cells assessed as inhibition of cell growth incubated for 72 hrs by celltiter-glo assay; type: functional, cell-based; conditions: LAMA-84, 72 h
[22] = Cmax in male Sprague-Dawley rat at 10 mg/kg, po measured upto 30 hrs by LC-MS/MS analysis; type: ADME, organism-based; conditions: in vivo
[23] = AUC (0 to infinity) in male Sprague-Dawley rat at 30 mg/kg, po measured upto 30 hrs by LC-MS/MS analysis; type: ADME, organism-based; conditions: in vivo
[24] = Tmax in male Sprague-Dawley rat at 15 mg/kg, po measured upto 30 hrs by LC-MS/MS analysis; type: ADME, organism-based; conditions: in vivo
BXPC-3 = assay: Antiproliferative activity against human BXPC-3 cells assessed as inhibition of cell growth incubated for 72 hrs by celltiter-glo assay; type: functional, cell-based; conditions: BXPC-3, 72 h
[25] = Toxicity in BALB/c mouse assessed as shortened intestinal tract at 90 to 120 mg/kg, po administered once daily for 21 days; type: organism-based; conditions: in vivo, 504 h, dose 90-120 mg/kg, time 21 day
MM1.S [26] = assay: Induction of apoptosis in human MM1.S cells assessed as increase in FOXO3A signal intensity; type: functional, cell-based
[27] = Toxicity in NOD-SCID mouse assessed as reduction in number of tumor cells at 60 mg/kg, po measured every 2 days for 21 days by H and E staining based analysis; type: organism-based; conditions: in vivo, 504 h, time 21 day
[28] = Tmax in male Sprague-Dawley rat at 10 mg/kg, po measured upto 30 hrs by LC-MS/MS analysis; type: ADME, organism-based; conditions: in vivo
MM1.S [29] = assay: Inhibition of CRM1 protein expression in human MM1.S cells at 0.25 to 1.25 uM by Western blot analysis; type: functional, cell-based; conditions: dose 0.25-1.25 µM, time 2-24 hrs
[30] = Toxicity in Sprague-Dawley rat at 30 mg/kg, po measured upto 48 hrs; type: organism-based; conditions: in vivo
[31] = Cmax in male Sprague-Dawley rat at 30 mg/kg, po measured upto 30 hrs by LC-MS/MS analysis; type: ADME, organism-based; conditions: in vivo
[32] = Oral bioavailability in male Sprague-Dawley rat at 10 mg/kg measured upto 30 hrs by LC-MS/MS analysis; type: ADME, organism-based; conditions: in vivo
[33] = Half life in male Sprague-Dawley rat at 30 mg/kg, po measured upto 30 hrs by LC-MS/MS analysis; type: ADME, organism-based; conditions: in vivo
[34] = Tmax in male Sprague-Dawley rat at 30 mg/kg, po measured upto 30 hrs by LC-MS/MS analysis; type: ADME, organism-based; conditions: in vivo

Sequence of Voltage-gated inwardly rectifying potassium channel KCNH2 (Q12809 whole entry): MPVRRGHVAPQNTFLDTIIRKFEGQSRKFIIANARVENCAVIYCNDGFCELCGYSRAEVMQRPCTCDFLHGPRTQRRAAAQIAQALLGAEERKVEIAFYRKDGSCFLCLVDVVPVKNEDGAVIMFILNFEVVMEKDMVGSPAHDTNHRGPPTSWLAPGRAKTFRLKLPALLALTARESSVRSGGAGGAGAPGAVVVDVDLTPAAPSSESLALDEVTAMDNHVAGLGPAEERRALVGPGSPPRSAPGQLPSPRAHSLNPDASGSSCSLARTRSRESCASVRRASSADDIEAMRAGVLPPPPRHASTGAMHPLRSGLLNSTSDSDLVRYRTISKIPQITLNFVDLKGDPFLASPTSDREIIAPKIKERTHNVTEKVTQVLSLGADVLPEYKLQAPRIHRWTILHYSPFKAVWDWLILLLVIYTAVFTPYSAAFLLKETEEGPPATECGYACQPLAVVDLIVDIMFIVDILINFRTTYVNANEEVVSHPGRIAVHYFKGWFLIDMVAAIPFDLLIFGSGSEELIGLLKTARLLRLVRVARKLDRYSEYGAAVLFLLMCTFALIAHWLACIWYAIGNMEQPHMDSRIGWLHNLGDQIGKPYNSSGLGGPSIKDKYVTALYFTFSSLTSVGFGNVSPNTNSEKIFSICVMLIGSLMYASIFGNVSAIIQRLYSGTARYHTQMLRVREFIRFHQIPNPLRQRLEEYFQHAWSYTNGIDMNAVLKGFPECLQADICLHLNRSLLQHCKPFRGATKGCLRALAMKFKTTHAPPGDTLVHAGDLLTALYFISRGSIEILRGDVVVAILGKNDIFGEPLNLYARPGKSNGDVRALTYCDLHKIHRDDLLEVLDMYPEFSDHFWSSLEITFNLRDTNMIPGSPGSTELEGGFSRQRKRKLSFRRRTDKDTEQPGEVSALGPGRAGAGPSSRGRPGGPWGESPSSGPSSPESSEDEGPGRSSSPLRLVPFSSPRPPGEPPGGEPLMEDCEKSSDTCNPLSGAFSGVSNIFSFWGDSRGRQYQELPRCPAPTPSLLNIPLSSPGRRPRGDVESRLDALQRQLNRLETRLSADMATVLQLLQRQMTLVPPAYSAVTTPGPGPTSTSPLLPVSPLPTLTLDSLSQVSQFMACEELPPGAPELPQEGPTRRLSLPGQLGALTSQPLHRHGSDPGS
Sequence of Ran-specific GTPase-activating protein (P43487 whole entry): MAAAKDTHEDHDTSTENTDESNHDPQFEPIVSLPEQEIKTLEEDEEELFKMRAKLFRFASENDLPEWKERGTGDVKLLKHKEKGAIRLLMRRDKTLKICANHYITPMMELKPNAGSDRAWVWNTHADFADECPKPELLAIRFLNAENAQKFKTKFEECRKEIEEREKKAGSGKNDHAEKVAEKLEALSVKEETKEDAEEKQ

Question: What does the source list for CONC(=O)/C(=C/n1cnc(-c2cc(C(F)(F)F)cc(C(F)(F)F)c2)n1)c1cncnc1?
Answer: IC50 [1]: 18.9 µM; Activity (MM1.S [2]): Active; IC50 (MM1.S [3]): 87.1 nM; AUC(0-t) at 30 h [4]: 3610 ng·h/mL; Activity [5]: Non-toxic; Activity [6]: Non-toxic; inhibition in vivo at 30 mg/kg (MM1.S [7]): 86.6%; Activity [8]: Non-toxic; Activity [9]: Non-toxic; Activity [10]: Non-toxic; IC50 [11]: 620 nM; IC50 (AN3-CA): 1080 nM; bioavailability [12]: 46.3%; Cmax [13]: 793 ng/mL; Activity [14]: Non-toxic; AUC(0-t) at 30 h [15]: 1300 ng·h/mL; IC50 (LoVo): 2040 nM; microsomal CLint [16]: 3.6 µL/min/mg; half-life [17]: > 120 min; Activity [18]: Non-toxic; IC50 (MV4-11): 43.5 nM; Activity [19]: Non-toxic; half-life [20]: > 120 min; microsomal CLint [21]: 7.2 µL/min/mg; Activity (ARH-77): Active; IC50 (LAMA-84): 1480 nM; Cmax [22]: 899 ng/mL; AUC(0-inf) [23]: 10400 ng·h/mL; Tmax [24]: 15 min; IC50 (BXPC-3): 3.18 µM; Activity [25]: Non-toxic; Activity (MM1.S [26]): Active; Activity [27]: Non-toxic; Tmax [28]: 18 min; inhibition (MM1.S [29]): Time-dependent-effect; Activity [30]: Non-toxic; Cmax [31]: 844 ng/mL; bioavailability [32]: 56%; half-life [33]: 216 min; Tmax [34]: 18 min
